pEC50, pIC50, pKi: −log10 of the molar value. Activity calls are given as the source filed them. No cut-off for these calls is given here.
How the values were obtained:
[1] = biological target: T1, Mineralocorticoid receptor (Homo sapiens, UniProt P08235); assay: Binding affinity at MR
T1 sequence (P08235 whole entry): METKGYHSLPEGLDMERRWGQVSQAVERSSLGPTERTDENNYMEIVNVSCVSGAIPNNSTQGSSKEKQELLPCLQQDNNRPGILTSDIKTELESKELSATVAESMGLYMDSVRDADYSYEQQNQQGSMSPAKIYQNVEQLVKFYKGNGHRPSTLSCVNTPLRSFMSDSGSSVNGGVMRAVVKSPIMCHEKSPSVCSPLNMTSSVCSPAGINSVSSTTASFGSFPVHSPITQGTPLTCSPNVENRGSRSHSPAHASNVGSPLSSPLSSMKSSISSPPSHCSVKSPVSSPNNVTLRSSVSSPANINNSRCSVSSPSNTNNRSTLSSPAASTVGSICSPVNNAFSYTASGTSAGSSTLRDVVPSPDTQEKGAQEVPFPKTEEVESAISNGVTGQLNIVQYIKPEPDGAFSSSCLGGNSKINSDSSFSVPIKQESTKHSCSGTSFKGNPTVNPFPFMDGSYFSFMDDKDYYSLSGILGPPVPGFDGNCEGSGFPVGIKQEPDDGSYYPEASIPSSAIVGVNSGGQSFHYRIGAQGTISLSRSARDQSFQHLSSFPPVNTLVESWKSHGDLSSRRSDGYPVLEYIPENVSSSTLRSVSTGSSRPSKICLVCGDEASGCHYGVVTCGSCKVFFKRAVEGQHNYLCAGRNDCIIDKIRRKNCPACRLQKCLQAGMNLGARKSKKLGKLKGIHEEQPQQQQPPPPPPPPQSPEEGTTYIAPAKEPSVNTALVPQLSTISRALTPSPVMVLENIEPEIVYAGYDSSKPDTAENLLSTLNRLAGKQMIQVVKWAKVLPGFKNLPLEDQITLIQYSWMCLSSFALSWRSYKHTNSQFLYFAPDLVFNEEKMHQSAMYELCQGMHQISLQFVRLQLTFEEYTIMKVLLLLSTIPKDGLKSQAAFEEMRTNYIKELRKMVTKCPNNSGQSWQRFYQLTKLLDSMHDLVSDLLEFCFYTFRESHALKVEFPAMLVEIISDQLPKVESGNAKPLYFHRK

[2] = biological target: T2, Progesterone receptor (Homo sapiens, UniProt P06401); assay: Binding affinity at PR
T2 sequence (P06401 whole entry): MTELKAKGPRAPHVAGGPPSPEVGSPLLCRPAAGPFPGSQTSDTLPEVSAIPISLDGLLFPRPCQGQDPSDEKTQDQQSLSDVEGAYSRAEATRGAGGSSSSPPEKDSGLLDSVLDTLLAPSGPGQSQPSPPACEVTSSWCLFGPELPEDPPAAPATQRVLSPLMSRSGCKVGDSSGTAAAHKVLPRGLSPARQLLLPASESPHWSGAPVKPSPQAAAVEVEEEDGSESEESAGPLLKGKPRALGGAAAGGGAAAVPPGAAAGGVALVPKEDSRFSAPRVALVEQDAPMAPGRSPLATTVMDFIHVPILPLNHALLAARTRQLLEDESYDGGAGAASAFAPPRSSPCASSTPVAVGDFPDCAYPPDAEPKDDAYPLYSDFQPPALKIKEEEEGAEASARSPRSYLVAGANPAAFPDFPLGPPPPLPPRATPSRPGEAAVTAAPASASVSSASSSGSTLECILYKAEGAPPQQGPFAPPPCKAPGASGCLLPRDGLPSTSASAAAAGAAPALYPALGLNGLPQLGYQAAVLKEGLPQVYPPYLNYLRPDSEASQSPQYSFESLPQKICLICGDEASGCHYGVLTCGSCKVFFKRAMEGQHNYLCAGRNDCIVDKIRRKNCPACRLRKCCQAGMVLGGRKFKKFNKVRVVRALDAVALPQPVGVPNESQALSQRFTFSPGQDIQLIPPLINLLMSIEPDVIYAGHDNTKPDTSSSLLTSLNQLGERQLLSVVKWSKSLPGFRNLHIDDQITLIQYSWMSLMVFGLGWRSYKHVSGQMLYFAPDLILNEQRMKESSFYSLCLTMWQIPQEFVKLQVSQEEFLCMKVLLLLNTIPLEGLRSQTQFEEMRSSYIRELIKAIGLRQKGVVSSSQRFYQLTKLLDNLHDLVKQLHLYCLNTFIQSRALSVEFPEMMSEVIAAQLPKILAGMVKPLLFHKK

[3] = biological target: T3, Androgen receptor (Homo sapiens, UniProt P10275); assay: Binding affinity at AR
T3 sequence (P10275 whole entry): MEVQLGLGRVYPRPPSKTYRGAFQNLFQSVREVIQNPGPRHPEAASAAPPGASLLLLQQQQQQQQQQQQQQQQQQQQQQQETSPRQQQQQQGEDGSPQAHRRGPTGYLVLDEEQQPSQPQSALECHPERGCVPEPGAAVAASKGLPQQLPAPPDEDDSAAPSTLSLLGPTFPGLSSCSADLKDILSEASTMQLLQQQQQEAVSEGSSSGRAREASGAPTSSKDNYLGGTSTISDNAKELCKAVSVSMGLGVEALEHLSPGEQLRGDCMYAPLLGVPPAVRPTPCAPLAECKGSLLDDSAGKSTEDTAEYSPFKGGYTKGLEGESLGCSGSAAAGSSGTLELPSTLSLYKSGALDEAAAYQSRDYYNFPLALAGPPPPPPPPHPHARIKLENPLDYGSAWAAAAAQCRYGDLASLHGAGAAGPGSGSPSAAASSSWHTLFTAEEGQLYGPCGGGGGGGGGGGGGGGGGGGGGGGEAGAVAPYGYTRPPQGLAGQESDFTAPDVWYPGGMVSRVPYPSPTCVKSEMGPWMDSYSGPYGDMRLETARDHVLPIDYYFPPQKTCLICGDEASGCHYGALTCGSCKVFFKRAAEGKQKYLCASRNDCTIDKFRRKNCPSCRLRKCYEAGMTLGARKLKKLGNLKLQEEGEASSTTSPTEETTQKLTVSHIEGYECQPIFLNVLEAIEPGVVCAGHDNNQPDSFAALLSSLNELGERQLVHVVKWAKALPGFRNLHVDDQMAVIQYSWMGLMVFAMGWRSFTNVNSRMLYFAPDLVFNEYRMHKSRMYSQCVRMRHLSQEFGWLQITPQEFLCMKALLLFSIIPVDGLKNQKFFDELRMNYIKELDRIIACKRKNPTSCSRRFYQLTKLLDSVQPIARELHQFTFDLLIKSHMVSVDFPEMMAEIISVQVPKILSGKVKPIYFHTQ

[4] = system: Rattus norvegicus; assay: Antiinflammatory activity against carrageenan-induced paw edema in rat assessed as paw volume at 30 mg/kg after 3 hrs; assay type: functional, organism-based; set-up: dose 30 mg/kg
[5] = biological target: T4, Glucocorticoid receptor (Homo sapiens, UniProt P04150); assay type: functional
T4 sequence (P04150 whole entry): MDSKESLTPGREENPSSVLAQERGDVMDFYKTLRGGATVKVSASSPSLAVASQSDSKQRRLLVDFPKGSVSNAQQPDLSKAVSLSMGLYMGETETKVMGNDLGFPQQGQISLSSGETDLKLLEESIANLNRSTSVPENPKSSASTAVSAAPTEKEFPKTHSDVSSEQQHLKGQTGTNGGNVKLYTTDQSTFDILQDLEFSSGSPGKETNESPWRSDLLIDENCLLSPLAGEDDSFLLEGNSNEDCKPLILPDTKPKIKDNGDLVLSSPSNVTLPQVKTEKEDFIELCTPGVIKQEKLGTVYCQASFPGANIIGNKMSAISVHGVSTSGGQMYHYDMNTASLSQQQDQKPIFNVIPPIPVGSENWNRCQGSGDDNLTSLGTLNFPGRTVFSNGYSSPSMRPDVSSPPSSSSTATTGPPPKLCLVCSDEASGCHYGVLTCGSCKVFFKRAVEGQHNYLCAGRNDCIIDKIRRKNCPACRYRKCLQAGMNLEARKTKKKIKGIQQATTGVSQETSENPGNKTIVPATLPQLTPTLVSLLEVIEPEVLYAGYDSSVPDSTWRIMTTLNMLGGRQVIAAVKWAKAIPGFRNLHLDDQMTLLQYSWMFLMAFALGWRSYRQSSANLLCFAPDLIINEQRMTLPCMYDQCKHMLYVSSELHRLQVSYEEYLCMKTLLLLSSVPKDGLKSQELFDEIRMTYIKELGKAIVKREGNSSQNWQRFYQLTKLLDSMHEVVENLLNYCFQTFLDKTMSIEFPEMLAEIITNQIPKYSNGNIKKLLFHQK
Description: Activity at GR assessed as repression of TNFalpha and IL 1-beta induced E-selectin response

[6] = biological target: T4, Glucocorticoid receptor
Description: Displacement of radiolabeled Dexamethasone from glucocorticoid receptor

[7] = biological target: T4, Glucocorticoid receptor; assay type: functional; remark: listed apart in the source
Description: Agonist activity at GR by GRE activation assay

[8] = biological target: T4, Glucocorticoid receptor; assay type: functional; remark: listed apart in the source
Description: Antagonist activity at GR assessed as inhibition of dexamethasone-induced GRE activation

| SMILES | pKi [1] | pKi [2] | pKi [3] | Activity [4] | pIC50 [5] | pKi [6] | pEC50 [7] | pIC50 [8] |
| --- | --- | --- | --- | --- | --- | --- | --- | --- |
| COCOCc1cc(F)ccc1/C=C1\Oc2ccc(O)c(OC)c2-c2ccc3c(c21)C(C)=CC(C)(C)N3 | 6.37 | 6.08 | 6.20 |  |  |  |  |  |
| COc1c(O)ccc2c1-c1ccc3c(c1/C(=C/c1ccc(F)cc1CO)O2)C(C)=CC(C)(C)N3 | 5.96 | 6.01 | 6.15 |  |  |  |  |  |
| COc1c(O)ccc2c1-c1ccc3c(c1/C(=C/c1cc(F)cc4c1OCOC4)O2)C(C)=CC(C)(C)N3 |  |  |  | Active |  |  |  |  |
| COc1c(O)ccc2c1-c1ccc3c(c1/C(=C/c1cccc(O)c1)O2)C(C)=CC(C)(C)N3 | 6.54 | 6.12 | 6.04 |  | 8.96 | 8.85 | 8.82 | 8.33 |

— ChEMBL document CHEMBL1149550, “5(Z)-benzylidene-1,2-dihydro-9-hydroxy-10-methoxy-2,2,4-trimethyl-5H-1-aza-6-oxa-chrysenes as non-steroidal glucocorticoid receptor modulators” (Bioorg Med Chem Lett, 2007)
